Measurements taken from patent publication US8399683B2 (TetraLogic Pharmaceuticals, priority 2008, dated 2013).
pKd: −log10 of the molar value.

Experiments:
cIAP-1 BIR-3 = cIAP-1 BIR-3 (Homo sapiens, UniProt Q13490); assay: Fluorescence polarization binding affinity to cIAP-1 BIR-3 (competition with AbuRPF-K(5-Fam)-NH2); conditions: 5 nM labeled peptide, 40 nM BIR3, 15 min at RT, pH 7.5; reported as ranges; read-out: KD (c-IAP-1 BIR3)
Method: (§1) The binding affinities of the compounds are reported as a KD value (μM). Briefly, various concentrations of test peptides were mixed with 5 nM of the fluorescently labeled peptide (i.e., a mutated N-terminal Smac peptide—AbuRPF-K(5-Fam)-NH2) and 40 nM of the respective IAP BIR3 for 15 min at RT in […] of 0.1M Potassium Phosphate buffer, pH 7.5 containing […] bovine g-globulin. Following incubation, the polarization values (mP) were measured on a Victor2V (available from PerkinElmer Life Sciences) using a 485 nm excitation filter and a 520 nm emission filter. The reported KD values are supplied as ranges (A=<0.1 μM, B=0.1 μM to 1 μM, C>1 μM to 10 μM, D=>10 μM).

SK-OV-3 cells = assay: Growth inhibition of ovarian cancer cell line SK-OV-3 (MTT assay, cell survival); assay type: cell-based; conditions: Homo sapiens, drug concentration that results in 50% cell survival, 72 hrs incubation, reported as ranges
Method: Compounds of the invention also were tested for their ability to inhibit the growth of an ovarian cancer cell line, SK-OV-3. A known assay previously used for measuring cell growth (as described in Hansen, M. B., Nielsen, S. E., and Berg, K. (1989) J. Immunol. Methods 119, 203-210 and incorporated herein by reference in its entirety) was used. Briefly, SK-OV-3 cells are seeded in 96-well plates in McCoy's medium containing 10% fetal bovine serum albumin (5,000 per well) and incubated overnight at 37° C. The next day, test compounds are added at various concentrations (0.003-10 μM) and the plates are incubated at 37° C. for an additional 72 hrs. This incubation time was considered to be optimal for measuring inhibitory effects of the different compounds tested. 50 microliters of 5 mg/mL MTT reagent is added to each well and the plates are incubated at 37° C. for another three (3) hours. At the end of the three (3) hour incubation period, 50 microliters of DMSO is added to each well to dissolve cells and the optical density (OD) of the wells is measured with a microplate reader (Victor^2 1420, Wallac, Finland) at 535 nm. Cell survival (CS) was calculated using the following equation: CS=(OD treated well/mean OD control wells)×100%.
The CC50 (reported in the following tables), is defined as the drug concentration that results in 50% cell survival (CS), and is derived by calculating the point where the dose-response curve crosses the 50% CS point using GraphPad Prism. The reported CC50 values are supplied as ranges (A=<0.1 μM, B=0.1 μM to 1 μM, C=>1 μM to 10 μM, D=>10 μM).

XIAP BIR-3 = target: T1, XIAP BIR-3 (Homo sapiens, UniProt P98170); assay: Fluorescence polarization binding affinity to XIAP BIR-3 (competition with AbuRPF-K(5-Fam)-NH2); conditions: 5 nM labeled peptide, 40 nM BIR3, 15 min at RT, pH 7.5; reported as ranges
T1 construct: 40 nM of the respective IAP BIR3
T1 sequence (P98170 241-356 limits assumed): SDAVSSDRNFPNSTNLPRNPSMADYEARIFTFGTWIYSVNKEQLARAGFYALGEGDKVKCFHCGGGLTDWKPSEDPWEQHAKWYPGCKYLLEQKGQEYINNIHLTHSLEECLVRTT
Method: as §1

Sequence of cIAP-1 BIR-3 (Q13490 266-352 limits assumed): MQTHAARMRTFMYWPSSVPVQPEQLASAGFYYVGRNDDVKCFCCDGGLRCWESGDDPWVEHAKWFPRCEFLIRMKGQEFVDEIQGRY

SMILES | pKd (cIAP-1 BIR-3) | CC50 (SK-OV-3 cells) | pKd (XIAP BIR-3)
CN[C@@H](C)C(=O)N[C@H](C(=O)N1CC[C@H]2NC[C@H](c3c[nH]c4cc(F)ccc34)[C@H]21)C(C)(C)C [Example 31, N-{1-[6-(6-Fluoro-1H-indol-3-yl)-hexahydro-pyrrolo[3,2-b]pyrrole-1-carbonyl]-2,2-dimethyl-propyl}-2-methylamino-propionamide] | > 7.00 | < 100 nM | 6.00 to 7.00
CN[C@@H](C)C(=O)N[C@H](C(=O)N1CC[C@H]2NC[C@H](c3c[nH]c4cc(F)ccc34)[C@H]21)C1CCCCC1 [Example 32, N-{1-Cyclohexyl-2-[6-(6-fluoro-1H-indol-3-yl)-hexahydro-pyrrolo[3,2-b]pyrrol-1-yl]-2-oxo-ethyl}-2-methylamino-propionamide] | > 7.00 | < 100 nM | > 7.00
CN[C@@H](C)C(=O)N[C@@H](CO)C(=O)N1CC[C@H]2NC[C@H](c3c[nH]c4cc(F)ccc34)[C@H]21 [Example 33, N-{2-[6-(6-Fluoro-1H-indol-3-yl)-hexahydro-pyrrolo[3,2-b]pyrrol-1-yl]-1-hydroxymethyl-2-oxo-ethyl}-2-methylamino-propionamide] | > 7.00 | 1000 to 10000 nM | > 7.00
CN[C@@H](C)C(=O)N[C@@H](COC)C(=O)N1CC[C@H]2NC[C@H](c3c[nH]c4cc(F)ccc34)[C@H]21 [Example 34, N-{2-[6-(6-Fluoro-1H-indol-3-yl)-hexahydro-pyrrolo[3,2-b]pyrrol-1-yl]-1-methoxymethyl-2-oxo-ethyl}-2-methylamino-propionamide] | > 7.00 | 1000 to 10000 nM | > 7.00
CN[C@@H](C)C(=O)N[C@H](C(=O)N1CC[C@H]2NC[C@H](c3c[nH]c4cc(F)ccc34)[C@H]21)[C@@H](C)OC [Example 35, N-{1-[6-(6-Fluoro-1H-indol-3-yl)-hexahydro-pyrrolo[3,2-b]pyrrole-1-carbonyl]-2-methoxy-propyl}-2-methylamino-propionamide] | > 7.00 | < 100 nM | > 7.00
CN[C@@H](C)C(=O)N[C@H](C(=O)N1CC[C@@H]2[C@H]1[C@@H](c1c[nH]c3cc(F)ccc13)CN2C(=O)OC)C1CCCCC1 [Example 36, 4-[2-Cyclohexyl-2-(2-methylamino-propionylamino)-acetyl]-3-(6-fluoro-1H-indol-3-yl)-hexahydro-pyrrolo[3,2-b]pyrrole-1-carboxylic acid methyl ester] | > 7.00 | < 100 nM | > 7.00
CN[C@@H](C)C(=O)N[C@H](C(=O)N1CC[C@@H]2[C@H]1[C@@H](c1c[nH]c3cc(F)ccc13)CN2C(=O)C(F)(F)F)C1CCCCC1 [Example 37, N-{1-Cyclohexyl-2-[6-(6-fluoro-1H-indol-3-yl)-4-(2,2,2-trifluoro-acetyl)-hexahydro-pyrrolo[3,2-b]pyrrol-1-yl]-2-oxo-ethyl}-2-methylamino-propionamide] | > 7.00 | < 100 nM | > 7.00
CN[C@@H](C)C(=O)N[C@H](C(=O)N1CC[C@@H]2[C@H]1[C@@H](c1c[nH]c3cc(F)ccc13)CN2C(=O)c1ccccc1)C1CCCCC1 [Example 38, N-{2-[4-Benzoyl-6-(6-fluoro-1H-indol-3-yl)-hexahydro-pyrrolo[3,2-b]pyrrol-1-yl]-1-cyclohexyl-2-oxo-ethyl}-2-methylamino-propionamide] | > 7.00 | < 100 nM | > 7.00
CN[C@@H](C)C(=O)N[C@H](C(=O)N1CC[C@@H]2[C@H]1[C@@H](c1c[nH]c3cc(F)ccc13)CN2C(=O)Cc1ccccc1)C1CCCCC1 [Example 39, N-{1-Cyclohexyl-2-[6-(6-fluoro-1H-indol-3-yl)-4-phenylacetyl-hexahydro-pyrrolo[3,2-b]pyrrol-1-yl]-2-oxo-ethyl}-2-methylamino-propionamide] | > 7.00 | < 100 nM | > 7.00
CN[C@@H](C)C(=O)N[C@H](C(=O)N1CC[C@@H]2[C@H]1[C@@H](c1c[nH]c3cc(F)ccc13)CN2C(=O)C1CC1)C1CCCCC1 [Example 40, N-{1-Cyclohexyl-2-[4-cyclopropanecarbonyl-6-(6-fluoro-1H-indol-3-yl)-hexahydro-pyrrolo[3,2-b]pyrrol-1-yl]-2-oxo-ethyl}-2-methylamino-propionamide] | > 7.00 | < 100 nM | > 7.00
CCOC(=O)CN1C[C@H](c2c[nH]c3cc(F)ccc23)[C@@H]2[C@H]1CCN2C(=O)[C@@H](NC(=O)[C@H](C)NC)C1CCCCC1 [Example 41, [4-[2-Cyclohexyl-2-(2-methylamino-propionylamino)-acetyl]-3-(6-fluoro-1H-indol-3-yl)-hexahydro-pyrrolo[3,2-b]pyrrol-1-yl]-acetic acid ethyl ester] | > 7.00 | 100 to 1000 nM | > 7.00
CN[C@@H](C)C(=O)N[C@H](C(=O)N1CC[C@@H]2[C@H]1[C@@H](c1c[nH]c3cc(F)ccc13)CN2CC(=O)O)C1CCCCC1 [Example 42, [4-[2-Cyclohexyl-2-(2-methylamino-propionylamino)-acetyl]-3-(6-fluoro-1H-indol-3-yl)-hexahydro-pyrrolo[3,2-b]pyrrol-1-yl]-acetic acid] | > 7.00 | 1000 to 10000 nM | 6.00 to 7.00
CN[C@@H](C)C(=O)N[C@H](C(=O)N1CC[C@@H]2[C@H]1[C@@H](c1c[nH]c3cc(F)ccc13)CN2S(C)(=O)=O)C1CCCCC1 [Example 43, N-{1-Cyclohexyl-2-[6-(6-fluoro-1H-indol-3-yl)-4-methanesulfonyl-hexahydro-pyrrolo[3,2-b]pyrrol-1-yl]-2-oxo-ethyl}-2-methylamino-propionamide] | > 7.00 | < 100 nM | > 7.00
CN[C@@H](C)C(=O)N[C@H](C(=O)N1CC[C@@H]2[C@H]1[C@H](c1c[nH]c3cc(F)ccc13)CN2S(C)(=O)=O)C1CCCCC1 [Example 44] | 6.00 to 7.00 | 1000 to 10000 nM | 5.00 to 6.00
CC[C@H](NC(=O)[C@H](C)NC)C(=O)N1CC[C@@H]2[C@H]1[C@H](c1c[nH]c3cc(F)ccc13)CN2S(C)(=O)=O [Example 45, N-{1-[6-(6-Fluoro-1H-indol-3-yl)-4-methanesulfonyl-hexahydro-pyrrolo[3,2-b]pyrrole-1-carbonyl]-propyl}-2-methylamino-propionamide] | 5.00 to 6.00 | > 10000 nM | < 5.00
CC[C@H](NC(=O)[C@H](C)NC)C(=O)N1CC[C@@H]2[C@H]1[C@@H](c1c[nH]c3cc(F)ccc13)CN2S(C)(=O)=O [Example 46, N-{1-[6-(6-Fluoro-1H-indol-3-yl)-4-methanesulfonyl-hexahydro-pyrrolo[3,2-b]pyrrole-1-carbonyl]-propyl}-2-methylamino-propionamide] | > 7.00 | < 100 nM | > 7.00
CN[C@@H](C)C(=O)N[C@H](C(=O)N1CC[C@@H]2[C@H]1[C@H](c1c[nH]c3cc(F)ccc13)CN2S(C)(=O)=O)C(C)C [Example 47, N-{1-[6-(6-Fluoro-1H-indol-3-yl)-4-methanesulfonyl-hexahydro-pyrrolo[3,2-b]pyrrole-1-carbonyl]-2-methyl-propyl}-2-methylamino-propionamide] | 6.00 to 7.00 | > 10000 nM | 6.00 to 7.00
CN[C@@H](C)C(=O)N[C@H](C(=O)N1CC[C@@H]2[C@H]1[C@@H](c1c[nH]c3cc(F)ccc13)CN2S(C)(=O)=O)C(C)C [Example 48, N-{1-[6-(6-Fluoro-1H-indol-3-yl)-4-methanesulfonyl-hexahydro-pyrrolo[3,2-b]pyrrole-1-carbonyl]-2-methyl-propyl}-2-methylamino-propionamide] | > 7.00 | < 100 nM | > 7.00
CN[C@@H](C)C(=O)N[C@H](C(=O)N1CC[C@@H]2[C@H]1[C@H](c1c[nH]c3cc(F)ccc13)CN2S(C)(=O)=O)C(C)(C)C [Example 49, N-{1-[6-(6-Fluoro-1H-indol-3-yl)-4-methanesulfonyl-hexahydro-pyrrolo[3,2-b]pyrrole-1-carbonyl]-2,2-dimethyl-propyl}-2-methylamino-propionamide] | 6.00 to 7.00 | > 10000 nM | 5.00 to 6.00
